This assay concerns the target T1, human PTHR1 receptor (Homo sapiens, UniProt Q03431).
T1 construct: purchased Eurofins HTS030M
T1 sequence (Q03431 27-593): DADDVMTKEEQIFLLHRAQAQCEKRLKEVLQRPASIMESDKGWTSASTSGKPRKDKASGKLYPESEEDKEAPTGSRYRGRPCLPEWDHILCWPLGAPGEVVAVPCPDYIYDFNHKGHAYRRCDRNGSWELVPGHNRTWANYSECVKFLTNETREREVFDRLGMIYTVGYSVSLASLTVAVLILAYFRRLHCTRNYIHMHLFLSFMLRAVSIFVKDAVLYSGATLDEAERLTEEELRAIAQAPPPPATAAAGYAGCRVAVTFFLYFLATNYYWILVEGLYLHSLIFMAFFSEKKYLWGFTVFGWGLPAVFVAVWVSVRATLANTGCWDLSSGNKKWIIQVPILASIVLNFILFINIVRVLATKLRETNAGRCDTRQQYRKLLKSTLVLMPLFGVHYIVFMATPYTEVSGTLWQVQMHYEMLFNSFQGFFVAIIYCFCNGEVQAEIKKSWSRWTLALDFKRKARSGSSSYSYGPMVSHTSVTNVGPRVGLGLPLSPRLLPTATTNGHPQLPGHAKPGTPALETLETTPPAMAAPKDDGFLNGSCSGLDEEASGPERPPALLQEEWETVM
Put plainly: Competitive antagonist binding assay for hPTH-R1 (radioactive competition binding, SPA beads). As to conditions: human PTHR1 membranes, [125I]-[Nle8,18,Tyr34]-PTH(1-34) 0.2 nM, 90 minutes at room temperature; read-out: hPTHR1 Ki. The method in brief: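 Displacement of 0.2 nM radioiodinated [Nle8,18,Tyr34]-PTH(1-34) from membrane-bound human PTHR1 measured by scintillation proximity after 90 min at room temperature. Compounds typically 0-10,000 nM final, pH 7.4 HEPES/Mg/Ca buffer with BSA and detergent. Ki calculated from competition data.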

By Ki is commonly meant the equilibrium dissociation constant of an inhibitor or competing ligand from its target.

Turning to `CCN1C(=O)N(c2c(F)cc(NCCNCCO)cc2F)c2cc(Cl)ccc2-c2nc(C#N)ccc21` [3-15, 13-chloro-10-[2,6-difluoro-4-({2-[(2-hydroxyethyl)amino]ethyl}amino)phenyl]-8-ethyl-9-oxo-3,8,10-triazatricyclo[9.4.0.0^2,7]pentadeca-1(11),2(7),3,5,12,14-hexaene-4-carbonitrile], the Ki was 1000 to 10000 nM. For `CCN1C(=O)N(c2c(F)cc(NCCNC)cc2F)c2cc(Cl)ccc2-c2nc(C#N)ccc21` [3-16, 13-chloro-10-(2,6-difluoro-4-{[2-(methylamino)ethyl]amino}phenyl)-8-ethyl-9-oxo-3,8,10-triazatricyclo[9.4.0.0^2,7]pentadeca-1(11),2(7),3,5,12,14-hexaene-4-carbonitrile], the Ki is 1000 to 10000 nM.

On to `CCN1C(=O)N(c2c(F)cc(NCCNC3CCOCC3)cc2F)c2cc(Cl)ccc2-c2nc(C#N)ccc21` [3-17, 13-chloro-10-[2,6-difluoro-4-({2-[(oxan-4-yl)amino]ethyl}amino)phenyl]-8-ethyl-9-oxo-3,8,10-triazatricyclo[9.4.0.0^2,7]pentadeca-1(11),2(7),3,5,12,14-hexaene-4-carbonitrile], for which the inhibition constant (Ki) lay within 1000 to 10000 nM. For `CCN1C(=O)N(c2c(F)cc(NCCNCCO)cc2F)c2cc(C#N)ccc2-c2cc(F)ccc21` [3-18, 8-[2,6-difluoro-4-({2-[(2-hydroxyethyl)amino]ethyl}amino)phenyl]-10-ethyl-14-fluoro-9-oxo-8,10-diazatricyclo[9.4.0.0^2,7]pentadeca-1(11),2(7),3,5,12,14-hexaene-5-carbonitrile] the value was less than 100 nM. For `CCN1C(=O)N(c2c(F)cc(NCCNC)cc2F)c2cc(C#N)ccc2-c2cc(F)ccc21` [3-19, 8-(2,6-difluoro-4-{[2-(methylamino)ethyl]amino}phenyl)-10-ethyl-14-fluoro-9-oxo-8,10-diazatricyclo[9.4.0.0^2,7]pentadeca-1(11),2(7),3,5,12,14-hexaene-5-carbonitrile] the value was less than 100 nM; for `CCN1C(=O)N(c2c(F)cc(NCCNCCO)cc2F)c2cc(C#N)c(C)cc2-c2cc(F)cnc21` [3-20, 10-[2,6-difluoro-4-({2-[(2-hydroxyethyl)amino]ethyl}amino)phenyl]-8-ethyl-4-fluoro-14-methyl-9-oxo-6,8,10-triazatricyclo[9.4.0.0^2,7]pentadeca-1(11),2(7),3,5,12,14-hexaene-13-carbonitrile], less than 100 nM.

For `CCN1C(=O)N(c2c(F)cc(NCCNCCO)cc2F)c2cc(Cl)cnc2-c2cc(Cl)cnc21` [3-21, 5,14-dichloro-8-[2,6-difluoro-4-({2-[(2-hydroxyethyl)amino]ethyl}amino)phenyl]-10-ethyl-3,8,10,12-tetraazatricyclo[9.4.0.0^2,7]pentadeca-1(11),2(7),3,5,12,14-hexaen-9-one], the Ki was less than 100 nM.

Take `CCN1C(=O)N(c2c(F)cc(NCCNCCO)cc2F)c2cc(Cl)ccc2-c2cc(C#N)ncc21` [3-22, 13-chloro-10-[2,6-difluoro-4-({2-[(2-hydroxyethyl)amino]ethyl}amino)phenyl]-8-ethyl-9-oxo-5,8,10-triazatricyclo[9.4.0.0^2,7]pentadeca-1(11),2(7),3,5,12,14-hexaene-4-carbonitrile]: the Ki is less than 100 nM.

With `CCN1C(=O)N(c2c(F)cc(NCCNCCO)cc2F)c2cc(C#N)c(OC)cc2-c2cc(F)cnc21` [3-23, 10-[2,6-difluoro-4-({2-[(2-hydroxyethyl)amino]ethyl}amino)phenyl]-8-ethyl-4-fluoro-14-methoxy-9-oxo-6,8,10-triazatricyclo[9.4.0.0^2,7]pentadeca-1(11),2(7),3,5,12,14-hexaene-13-carbonitrile], the Ki was less than 100 nM.

With `CCN1C(=O)N(c2c(F)cc(NCCNC3CCOCC3)cc2F)c2cc(Cl)ccc2-c2cc(C#N)ncc21` [3-24, 13-chloro-10-[2,6-difluoro-4-({2-[(oxan-4-yl)amino]ethyl}amino)phenyl]-8-ethyl-9-oxo-5,8,10-triazatricyclo[9.4.0.0^2,7]pentadeca-1(11),2(7),3,5,12,14-hexaene-4-carbonitrile], the Ki is less than 100 nM.

Consider `CCN1C(=O)N(c2c(F)cc(NCCNCCO)cc2F)c2cc(Cl)cnc2-c2cc(F)cnc21` [3-25, 5-chloro-8-[2,6-difluoro-4-({2-[(2-hydroxyethyl)amino]ethyl}amino)phenyl]-10-ethyl-14-fluoro-3,8,10,12-tetraazatricyclo[9.4.0.0^2,7]pentadeca-1(11),2(7),3,5,12,14-hexaen-9-one], for which the Ki was less than 100 nM. On to “[2-({2-[(4-{13-cyano-8-ethyl-4-fluoro-9-oxo-6,8,10-triazatricyclo[9.4.0.0^2,7]pentadeca-1(11),2(7),3,5,12,14-hexaen-10-yl}-3,5-difluorophenyl)amino]ethyl}amino)ethyl]urea [1-169]”, for which the Ki was less than 100 nM.
